Assay results taken from article PMC4917279 (Journal of Medicinal Chemistry, 2016).
“Also recorded” adds a separate entry of the source.

Tests used:
SGK2 = biological target: T1, SGK2 (Homo sapiens, UniProt Q9HBY8); experiment: KINOMEscan; format: binding; conditions: read-out: %Ctrl @ 1000 nM
T1 construct: purchased DiscoveRx KINOMEscan

KIT(A829P) = biological target: T2, KIT(A829P) (Homo sapiens, UniProt P10721, A829P); experiment: KINOMEscan; format: binding; conditions: read-out: %Ctrl @ 1000 nM
T2 construct: purchased DiscoveRx KINOMEscan

TNIK = biological target: T3, TNIK (Homo sapiens, UniProt Q9UKE5); experiment: KINOMEscan; format: binding; conditions: read-out: %Ctrl @ 1000 nM
T3 construct: purchased DiscoveRx KINOMEscan

AMPK-alpha1 = biological target: T4, AMPK-alpha1 (Homo sapiens, UniProt Q13131); experiment: KINOMEscan; format: binding; conditions: read-out: %Ctrl @ 1000 nM
T4 construct: purchased DiscoveRx KINOMEscan

[1] = biological target: T5, RSK2(Kin.Dom.1-N-terminal) (Homo sapiens, UniProt P51812); experiment: KINOMEscan; format: binding; conditions: read-out: %Ctrl @ 1000 nM
T5 construct: RSK2(Kin.Dom.1-N-terminal); purchased DiscoveRx KINOMEscan

ERK3 = biological target: T6, ERK3 (Homo sapiens, UniProt Q16659); experiment: KINOMEscan; format: binding; conditions: read-out: %Ctrl @ 1000 nM
T6 construct: purchased DiscoveRx KINOMEscan
T6 sequence (Q16659 whole entry): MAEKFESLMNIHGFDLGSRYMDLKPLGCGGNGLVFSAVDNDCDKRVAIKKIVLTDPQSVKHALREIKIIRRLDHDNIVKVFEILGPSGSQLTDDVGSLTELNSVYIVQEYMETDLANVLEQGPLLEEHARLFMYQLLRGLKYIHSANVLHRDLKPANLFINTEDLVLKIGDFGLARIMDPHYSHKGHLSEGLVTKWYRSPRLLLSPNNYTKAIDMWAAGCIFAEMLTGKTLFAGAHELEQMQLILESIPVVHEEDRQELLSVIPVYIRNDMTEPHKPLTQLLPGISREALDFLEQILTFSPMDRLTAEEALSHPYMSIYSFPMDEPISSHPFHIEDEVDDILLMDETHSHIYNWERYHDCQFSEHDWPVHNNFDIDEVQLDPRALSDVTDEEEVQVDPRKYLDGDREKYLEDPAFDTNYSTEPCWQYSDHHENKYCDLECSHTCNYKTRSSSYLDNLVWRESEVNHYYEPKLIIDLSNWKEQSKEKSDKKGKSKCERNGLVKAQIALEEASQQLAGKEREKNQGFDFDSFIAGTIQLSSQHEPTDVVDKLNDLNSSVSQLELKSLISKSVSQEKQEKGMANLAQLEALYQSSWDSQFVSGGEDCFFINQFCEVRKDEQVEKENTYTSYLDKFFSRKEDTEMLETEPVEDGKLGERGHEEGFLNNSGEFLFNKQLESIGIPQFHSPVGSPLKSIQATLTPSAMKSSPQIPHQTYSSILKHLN

ACVR2B = biological target: T7, ACVR2B (Homo sapiens, UniProt Q13705); experiment: KINOMEscan; format: binding; conditions: read-out: %Ctrl @ 1000 nM
T7 construct: purchased DiscoveRx

PRKCH = biological target: T8, PRKCH (Homo sapiens, UniProt P24723); experiment: KINOMEscan; format: binding; conditions: read-out: %Ctrl @ 1000 nM
T8 construct: purchased DiscoveRx KINOMEscan
T8 sequence (P24723 whole entry): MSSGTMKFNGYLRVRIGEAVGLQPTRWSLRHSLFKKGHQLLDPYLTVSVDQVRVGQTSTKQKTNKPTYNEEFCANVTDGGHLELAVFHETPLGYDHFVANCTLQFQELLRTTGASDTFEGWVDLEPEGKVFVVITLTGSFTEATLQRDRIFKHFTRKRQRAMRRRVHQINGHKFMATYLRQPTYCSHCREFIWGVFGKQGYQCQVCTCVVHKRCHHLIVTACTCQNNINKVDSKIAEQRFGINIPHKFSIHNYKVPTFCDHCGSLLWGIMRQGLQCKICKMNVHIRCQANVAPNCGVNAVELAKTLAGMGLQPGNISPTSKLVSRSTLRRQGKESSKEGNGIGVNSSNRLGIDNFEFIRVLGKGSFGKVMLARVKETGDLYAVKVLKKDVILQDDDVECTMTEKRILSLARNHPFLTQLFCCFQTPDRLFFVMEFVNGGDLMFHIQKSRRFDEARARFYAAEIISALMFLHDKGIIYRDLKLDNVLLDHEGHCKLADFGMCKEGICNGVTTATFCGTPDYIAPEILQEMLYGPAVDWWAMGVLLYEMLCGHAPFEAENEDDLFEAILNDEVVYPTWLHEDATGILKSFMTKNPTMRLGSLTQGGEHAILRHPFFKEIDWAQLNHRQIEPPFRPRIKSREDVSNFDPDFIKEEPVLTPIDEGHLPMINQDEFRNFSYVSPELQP

SBK1 = biological target: T9, SBK1 (Homo sapiens, UniProt Q52WX2); experiment: KINOMEscan; format: binding; conditions: read-out: %Ctrl @ 1000 nM
T9 construct: purchased DiscoveRx KINOMEscan

LCK = biological target: T10, LCK (Homo sapiens, UniProt P06239); experiment: KINOMEscan; format: binding; conditions: read-out: %Ctrl @ 1000 nM
T10 construct: purchased DiscoveRx KINOMEscan

ERK1 = biological target: T11, ERK1 (Homo sapiens, UniProt P27361); experiment: KINOMEscan; format: binding; conditions: read-out: %Ctrl @ 1000 nM
T11 construct: purchased DiscoveRx KINOMEscan

CDKL3 = biological target: T12, CDKL3 (Homo sapiens, UniProt Q8IVW4); experiment: KINOMEscan; format: binding; conditions: read-out: %Ctrl @ 1000 nM
T12 construct: purchased DiscoveRx KINOMEscan

[2] = biological target: T13, ABL1(F317L)-phosphorylated (Homo sapiens, UniProt P00519, F317L); experiment: KINOMEscan; format: binding; conditions: read-out: %Ctrl @ 1000 nM
T13 construct: purchased DiscoveRx (KINOMEscan service)

GRK4 = biological target: T14, GRK4 (Homo sapiens, UniProt P32298); experiment: KINOMEscan; format: binding; conditions: read-out: %Ctrl @ 1000 nM
T14 construct: purchased DiscoveRx KINOMEscan
T14 sequence (P32298 whole entry): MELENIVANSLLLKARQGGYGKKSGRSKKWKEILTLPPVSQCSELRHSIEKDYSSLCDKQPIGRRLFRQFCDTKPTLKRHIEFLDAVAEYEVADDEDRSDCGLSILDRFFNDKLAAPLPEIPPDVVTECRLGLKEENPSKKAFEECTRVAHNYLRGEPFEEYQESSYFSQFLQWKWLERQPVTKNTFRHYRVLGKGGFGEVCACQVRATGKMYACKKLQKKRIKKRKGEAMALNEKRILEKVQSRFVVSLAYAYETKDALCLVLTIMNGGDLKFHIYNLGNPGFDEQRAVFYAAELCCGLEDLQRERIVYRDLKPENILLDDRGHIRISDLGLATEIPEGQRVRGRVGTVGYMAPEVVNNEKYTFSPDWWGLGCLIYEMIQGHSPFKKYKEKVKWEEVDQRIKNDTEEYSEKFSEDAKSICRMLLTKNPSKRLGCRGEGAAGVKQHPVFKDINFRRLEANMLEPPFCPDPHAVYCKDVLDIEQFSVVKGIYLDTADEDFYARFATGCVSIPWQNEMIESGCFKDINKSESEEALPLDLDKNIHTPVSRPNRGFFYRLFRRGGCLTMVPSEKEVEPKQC

GSK3B = biological target: T15, GSK3B (Homo sapiens, UniProt P49841); experiment: KINOMEscan; format: binding; conditions: read-out: %Ctrl @ 1000 nM
T15 construct: purchased DiscoveRx KINOMEscan

TRKB = biological target: T16, TRKB (Homo sapiens, UniProt Q16620); experiment: KINOMEscan; format: binding; conditions: read-out: %Ctrl @ 1000 nM
T16 construct: purchased DiscoveRx KINOMEscan

[3] = biological target: T17, RSK1(Kin.Dom.2-C-terminal) (Homo sapiens, UniProt Q15418); experiment: KINOMEscan; format: binding; conditions: read-out: %Ctrl @ 1000 nM
T17 construct: RSK1(Kin.Dom.2-C-terminal); purchased DiscoveRx KINOMEscan

RET(M918T) = biological target: T18, RET(M918T) (Homo sapiens, UniProt P07949, M918T); experiment: KINOMEscan; format: binding; conditions: read-out: %Ctrl @ 1000 nM
T18 construct: purchased DiscoveRx KINOMEscan

[4] = tested on: KYSE-150, U2OS, and A2780 cell lines; experiment: Caspase 3/7 activation assay; format: cell-based
Protocol: Effects on apoptosis induction were measured with the Caspase-Glo 3/7 Assay System (Promega).

PDGFRA = biological target: T19, PDGFRA (Homo sapiens, UniProt P16234); experiment: KINOMEscan; format: binding; conditions: read-out: %Ctrl @ 1000 nM
T19 construct: purchased DiscoveRx KINOMEscan

EGFR(L858R) = biological target: T20, EGFR(L858R) (Homo sapiens, UniProt P00533, L858R); experiment: KINOMEscan; format: binding; conditions: read-out: %Ctrl @ 1000 nM
T20 construct: purchased DiscoveRx KINOMEscan

NEK5 = biological target: T21, NEK5 (Homo sapiens, UniProt Q6P3R8); experiment: KINOMEscan; format: binding; conditions: read-out: %Ctrl @ 1000 nM
T21 construct: purchased DiscoveRx KINOMEscan

EGFR(G719S) = biological target: T22, EGFR(G719S) (Homo sapiens, UniProt P00533, G719S); experiment: KINOMEscan; format: binding; conditions: read-out: %Ctrl @ 1000 nM
T22 construct: purchased DiscoveRx KINOMEscan

TXK = biological target: T23, TXK (Homo sapiens, UniProt P42681); experiment: KINOMEscan; format: binding; conditions: read-out: %Ctrl @ 1000 nM
T23 construct: purchased DiscoveRx KINOMEscan
T23 sequence (P42681 whole entry): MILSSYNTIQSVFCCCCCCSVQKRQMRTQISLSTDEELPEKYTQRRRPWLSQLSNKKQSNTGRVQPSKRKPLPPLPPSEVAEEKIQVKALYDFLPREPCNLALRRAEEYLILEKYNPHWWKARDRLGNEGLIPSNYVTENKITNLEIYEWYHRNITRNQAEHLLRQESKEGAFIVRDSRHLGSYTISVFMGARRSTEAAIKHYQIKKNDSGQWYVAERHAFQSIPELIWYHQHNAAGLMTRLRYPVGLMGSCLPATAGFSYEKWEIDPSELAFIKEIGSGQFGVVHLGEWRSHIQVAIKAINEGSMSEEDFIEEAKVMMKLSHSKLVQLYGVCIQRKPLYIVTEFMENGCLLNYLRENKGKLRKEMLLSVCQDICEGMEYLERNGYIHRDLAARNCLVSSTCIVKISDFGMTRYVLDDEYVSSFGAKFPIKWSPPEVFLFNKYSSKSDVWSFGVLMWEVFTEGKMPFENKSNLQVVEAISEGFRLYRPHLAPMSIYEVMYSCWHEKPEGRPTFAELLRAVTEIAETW

WEE1 = biological target: T24, WEE1 (Homo sapiens, UniProt P30291); experiment: KINOMEscan; format: binding; conditions: read-out: %Ctrl @ 1000 nM
T24 construct: purchased DiscoveRx KINOMEscan

BMX = biological target: T25, BMX (Homo sapiens, UniProt P51813); experiment: KINOMEscan; format: binding; conditions: read-out: %Ctrl @ 1000 nM
T25 construct: purchased DiscoveRx KINOMEscan

BMPR1A = biological target: T26, BMPR1A (Homo sapiens, UniProt P36894); experiment: KINOMEscan; format: binding; conditions: read-out: %Ctrl @ 1000 nM
T26 construct: purchased DiscoveRx KINOMEscan
T26 sequence (P36894 24-532): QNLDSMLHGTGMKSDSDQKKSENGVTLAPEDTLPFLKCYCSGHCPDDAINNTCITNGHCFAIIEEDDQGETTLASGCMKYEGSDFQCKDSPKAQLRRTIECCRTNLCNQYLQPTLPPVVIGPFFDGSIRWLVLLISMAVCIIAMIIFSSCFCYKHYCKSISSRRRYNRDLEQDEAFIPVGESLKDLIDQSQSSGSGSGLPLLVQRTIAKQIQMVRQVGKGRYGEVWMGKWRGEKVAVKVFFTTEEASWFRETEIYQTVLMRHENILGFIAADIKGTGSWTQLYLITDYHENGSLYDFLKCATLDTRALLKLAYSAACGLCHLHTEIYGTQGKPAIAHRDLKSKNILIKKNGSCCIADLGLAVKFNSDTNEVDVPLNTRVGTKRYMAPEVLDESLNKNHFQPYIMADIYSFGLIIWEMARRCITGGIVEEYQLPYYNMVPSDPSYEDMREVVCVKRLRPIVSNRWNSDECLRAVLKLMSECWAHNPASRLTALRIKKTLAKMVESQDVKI

[5] = biological target: T27, ABL1(H396P)-phosphorylated (Homo sapiens, UniProt P00519, H396P); experiment: KINOMEscan; format: binding; conditions: read-out: %Ctrl @ 1000 nM
T27 construct: purchased DiscoveRx (KINOMEscan service)

AURKC = biological target: T28, AURKC (Homo sapiens, UniProt Q9UQB9); experiment: KINOMEscan; format: binding; conditions: read-out: %Ctrl @ 1000 nM
T28 construct: purchased DiscoveRx KINOMEscan

GSK3A = biological target: T29, GSK3A (Homo sapiens, UniProt P49840); experiment: KINOMEscan; format: binding; conditions: read-out: %Ctrl @ 1000 nM
T29 construct: purchased DiscoveRx KINOMEscan

[6] = biological target: T30, ABL1(Q252H)-nonphosphorylated (Homo sapiens, UniProt P00519, Q252H); experiment: KINOMEscan; format: binding; conditions: read-out: %Ctrl @ 1000 nM
T30 construct: purchased DiscoveRx (KINOMEscan service)

[7] = biological target: T31, ABL1(E255K)-phosphorylated (Homo sapiens, UniProt P00519, E255K); experiment: KINOMEscan; format: binding; conditions: read-out: %Ctrl @ 1000 nM
T31 construct: purchased DiscoveRx (KINOMEscan service)

GCN2(Kin.Dom.2,S808G) = biological target: T32, GCN2(Kin.Dom.2,S808G) (Homo sapiens, UniProt Q9P2K8, S808G); experiment: KINOMEscan; format: binding; conditions: read-out: %Ctrl @ 1000 nM
T32 construct: GCN2(Kin.Dom.2,S808G); purchased DiscoveRx KINOMEscan

TAOK3 = biological target: T33, TAOK3 (Homo sapiens, UniProt Q9H2K8); experiment: KINOMEscan; format: binding; conditions: read-out: %Ctrl @ 1000 nM
T33 construct: purchased DiscoveRx KINOMEscan
T33 sequence (Q9H2K8 whole entry): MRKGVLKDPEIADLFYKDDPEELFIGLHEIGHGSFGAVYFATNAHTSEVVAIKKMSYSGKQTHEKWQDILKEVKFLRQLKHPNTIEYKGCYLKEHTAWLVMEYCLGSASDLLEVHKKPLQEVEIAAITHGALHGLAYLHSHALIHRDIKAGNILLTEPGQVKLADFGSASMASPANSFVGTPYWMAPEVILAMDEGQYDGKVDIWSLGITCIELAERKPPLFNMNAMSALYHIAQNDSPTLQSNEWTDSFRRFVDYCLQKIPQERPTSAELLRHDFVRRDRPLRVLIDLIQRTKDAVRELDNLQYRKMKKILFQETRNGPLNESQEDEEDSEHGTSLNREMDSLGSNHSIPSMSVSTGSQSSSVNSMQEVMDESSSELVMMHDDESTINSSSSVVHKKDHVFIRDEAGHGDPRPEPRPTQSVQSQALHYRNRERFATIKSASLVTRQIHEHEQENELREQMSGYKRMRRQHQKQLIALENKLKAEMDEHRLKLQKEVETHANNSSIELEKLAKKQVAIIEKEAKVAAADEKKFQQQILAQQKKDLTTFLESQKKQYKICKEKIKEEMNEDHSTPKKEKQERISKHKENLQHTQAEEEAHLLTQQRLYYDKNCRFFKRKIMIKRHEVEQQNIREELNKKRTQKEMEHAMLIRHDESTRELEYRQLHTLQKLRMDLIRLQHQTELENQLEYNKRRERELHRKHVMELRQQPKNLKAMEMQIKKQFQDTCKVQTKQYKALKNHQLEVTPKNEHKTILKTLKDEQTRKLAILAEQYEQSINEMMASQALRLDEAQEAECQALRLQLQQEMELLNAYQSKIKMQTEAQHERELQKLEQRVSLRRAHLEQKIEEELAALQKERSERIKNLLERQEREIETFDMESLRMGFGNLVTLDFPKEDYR

EPHB4 = biological target: T34, EPHB4 (Homo sapiens, UniProt P54760); experiment: KINOMEscan; format: binding; conditions: read-out: %Ctrl @ 1000 nM
T34 construct: purchased DiscoveRx KINOMEscan
T34 sequence (P54760 16-987): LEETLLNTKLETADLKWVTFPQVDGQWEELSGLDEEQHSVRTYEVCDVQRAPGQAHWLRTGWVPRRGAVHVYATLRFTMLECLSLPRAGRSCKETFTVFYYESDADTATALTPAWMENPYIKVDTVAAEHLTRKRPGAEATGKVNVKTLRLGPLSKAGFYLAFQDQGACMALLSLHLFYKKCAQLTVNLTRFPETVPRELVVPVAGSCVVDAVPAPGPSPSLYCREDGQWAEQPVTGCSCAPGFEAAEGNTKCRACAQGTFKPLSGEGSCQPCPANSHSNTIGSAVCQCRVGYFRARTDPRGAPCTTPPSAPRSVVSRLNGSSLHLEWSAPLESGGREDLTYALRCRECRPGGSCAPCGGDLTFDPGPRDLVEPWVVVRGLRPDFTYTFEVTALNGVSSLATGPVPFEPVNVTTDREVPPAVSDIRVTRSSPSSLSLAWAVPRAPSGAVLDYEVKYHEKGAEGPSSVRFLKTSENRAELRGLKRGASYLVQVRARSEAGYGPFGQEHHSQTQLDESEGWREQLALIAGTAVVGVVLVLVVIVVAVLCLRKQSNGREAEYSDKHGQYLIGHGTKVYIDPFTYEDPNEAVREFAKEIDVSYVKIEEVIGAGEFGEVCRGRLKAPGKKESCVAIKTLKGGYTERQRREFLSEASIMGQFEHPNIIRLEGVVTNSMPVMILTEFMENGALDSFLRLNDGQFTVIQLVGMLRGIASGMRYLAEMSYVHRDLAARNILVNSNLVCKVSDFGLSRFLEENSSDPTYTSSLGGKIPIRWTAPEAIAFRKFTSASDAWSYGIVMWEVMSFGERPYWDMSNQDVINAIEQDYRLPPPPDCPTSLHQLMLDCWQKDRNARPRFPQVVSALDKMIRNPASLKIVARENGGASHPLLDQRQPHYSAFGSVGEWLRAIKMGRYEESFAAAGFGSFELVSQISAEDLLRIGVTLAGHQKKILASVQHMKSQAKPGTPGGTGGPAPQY

FER = biological target: T35, FER (Homo sapiens, UniProt P16591); experiment: KINOMEscan; format: binding; conditions: read-out: %Ctrl @ 1000 nM
T35 construct: purchased DiscoveRx KINOMEscan

PIK3CA(E545A) = biological target: T36, PIK3CA(E545A) (Homo sapiens, UniProt P42336, E545A); experiment: KINOMEscan; format: binding; conditions: read-out: %Ctrl @ 1000 nM
T36 construct: purchased DiscoveRx KINOMEscan

[8] = biological target: T37, ABL1(Y253F)-phosphorylated (Homo sapiens, UniProt P00519, Y253F); experiment: KINOMEscan; format: binding; conditions: read-out: %Ctrl @ 1000 nM
T37 construct: purchased DiscoveRx

[9] = biological target: T38, ABL1(H396P)-nonphosphorylated (Homo sapiens, UniProt P00519, H396P); experiment: KINOMEscan; format: binding; conditions: read-out: %Ctrl @ 1000 nM
T38 construct: purchased DiscoveRx (KINOMEscan service)

In the case of `CCN(C(=O)CO)[C@H]1CN(/C(=N\C#N)Nc2cccc(OC(F)F)c2)N=C1c1ccc(Cl)c(Cl)c1` [(S)-4], the remaining binding at 1 µM (SGK2) was 100%, the remaining binding at 1 µM (KIT(A829P)) was 98% and the remaining binding at 1 µM (TNIK) was 100%. It also gave a remaining binding at 1 µM (AMPK-alpha1) of 68%, a remaining binding at 1 µM [1] of 99% and a remaining binding at 1 µM (ERK3) of 77%. It also gave a remaining binding at 1 µM (ACVR2B) of 100%, a remaining binding at 1 µM (PRKCH) of 80% and a remaining binding at 1 µM (SBK1) of 88%. The remaining binding at 1 µM (LCK) was 66%, the remaining binding at 1 µM (ERK1) was 100% and the remaining binding at 1 µM (CDKL3) was 96%. The remaining binding at 1 µM [2] was 93%, the remaining binding at 1 µM (GRK4) was 98% and the remaining binding at 1 µM (GSK3B) was 88%. For the same molecule, the remaining binding at 1 µM (TRKB) was 100%, the remaining binding at 1 µM [3] was 100% and the remaining binding at 1 µM (RET(M918T)) was 80%. For the same molecule, the “Caspase 3/7 activation in combination with doxorubicin” value ([4]; 2 days pretreatment, then doxorubicin 24 h, KYSE-150, U2OS, A2780) was “significantly improved; also recorded: significantly improving”, the Apoptosis induction alone ([4]; without doxorubicin) was “without inducing apoptosis alone” and the remaining binding at 1 µM (PDGFRA) was 100%. It also gave a remaining binding at 1 µM (EGFR(L858R)) of 91%, a remaining binding at 1 µM (NEK5) of 85% and a remaining binding at 1 µM (EGFR(G719S)) of 78%. The remaining binding at 1 µM (TXK) was 73%, the remaining binding at 1 µM (WEE1) was 100% and the remaining binding at 1 µM (BMX) was 89%. It also gave a remaining binding at 1 µM (BMPR1A) of 100%, a remaining binding at 1 µM [5] of 88% and a remaining binding at 1 µM (AURKC) of 77%. The remaining binding at 1 µM (GSK3A) was 88%, the remaining binding at 1 µM [6] was 66% and the remaining binding at 1 µM [7] was 85%. The remaining binding at 1 µM (GCN2(Kin.Dom.2,S808G)) was 100%, the remaining binding at 1 µM (TAOK3) was 92% and the remaining binding at 1 µM (EPHB4) was 97%. It also gave a remaining binding at 1 µM (FER) of 68%, a remaining binding at 1 µM (PIK3CA(E545A)) of 53% and a remaining binding at 1 µM [8] of 100%. The remaining binding at 1 µM [9] was 92%.
